According to US12396977B2, “Composition for treating degenerative brain diseases, containing 2-pentylfuran as active ingredient” (DAEGU GYEONGBUK INSTITUTE OF SCIENCE AND TECHNOLOGY, priority 2019, dated 2025):
“Also recorded” adds a separate entry of the source.

Legend:
[1] = Disease behavior: mouse mobility (movement distance) after IP injection; assay type: in vivo; conditions: after intraperitoneal (IP) injection
Description: It is known that an increase in disease behavior by activation of microglia is due to an increase in secreted cytokines. This experiment was conducted to confirm an increase in disease behavior with an increase in cytokines. The evaluation of disease behavior was made after IP injection of Sup or 2-PF into the mice.
After IP injection, the mouse was placed in a space with four open sides (40×40×40 cm, white field, black wall), and after the position of the mouse was recorded for 30 minutes using a camera, the movement distance was calculated Thereafter, a pseudo-color heat map was drawn using EthoVision XT (Noldus, Netherlands).

cerebral cortex = test: Cytokine mRNA in cerebral cortex after IP injection (qRT-PCR); assay type: in vivo, mouse; conditions: vs control
Excerpt: (§1) For the measurement of mRNA, RNA was isolated from red blood cells, microglia, astrocytes, Hana3A cells, or cerebral cortical cells using the MagNa Lyser (Roche Molecular Diagnostics) using TRIzol reagent (Invitrogen, Carlsbad, CA.) according to the manufacturer's protocol. Then, cDNA was generated through reverse transcription using the isolated mRNA (using PrimeScript™ 1st str and cDNA Synthesis kit—#6110; Takara Bio Inc). This process was quantitatively measured in real time through quantitative real-time-PCR (using LightCycler® 480 SYBR Green I Master). The measured values were calculated using the 2-ΔΔCt method.

microglia = test: GFP intensity / morphology of microglia in CX3CR1 GFP mice; assay type: in vivo, mouse; conditions: cerebral cortex of CX3CR1 GFP mice after injection, vs control
Description: In order to analyze morphological changes in microglia activation, 9-week-old CX3CR1^GFP/− mice were used. Two hours after an IP containing or not containing 2-PF was injected into two mice, brain sections were collected by cryosection. After a 40 μm-thick brain tissue fragment was prepared to be smaller than 1 μm, a GFP signal of microglia was measured using a 40-fold magnification confocal microscope. A GFP-pixel signal of microglia was analyzed using Zeiss ZEN Software (Zeiss).

Olfr111 = test: Luciferase assay in Hana3A cells, Olfr111; assay type: cell-based, mouse; conditions: Hana3A cells
Description: Next, Hana3A cells were transfected with RTP1S, and their location and presence on the cell membrane were confirmed as previously described (Behrens et al., 2009; Zhuang and Matsunami, 2008). Such transfection was performed using Lipofectamine 2000 (#11668-019; Thermo Fisher Scientific) according to the manufacturer's instructions. More specifically, the transfected cells were grown on a coverslip (#0101050; Marienfeld) coated with poly D lysine (10 μg/ml; #P7280; Sigma Aldrich). Next, the cells were washed with a warm PBS solution and cooled with ice for 30 minutes to block endocytosis. […] The cells were then incubated with normal horse serum (#008-000-121; Jackson ImmunoResearch) at room temperature for 1 hour. […] After being washed with PBS, the cells were treated with a Cy3-conjugated donkey anti-mouse antibody (1:1,000; #715-165-150; Jackson ImmunoResearch), an Alexa488-conjugated donkey anti-mouse antibody (1:1,000; #715-545-150; Jackson ImmunoResearch), or a Cy3-conjugated donkey anti-rabbit antibody (1:1,000; #711-165-152; Jackson ImmunoResearch) at room temperature for 1 hour. The cells were mounted with a Vectashield fluorescent mounting medium containing DAPI (#H-1200; Vector Laboratories). The expression of heterologous odorant receptors was analyzed with a confocal laser scanning microscope LSM700 and ZEN software (Zeiss).
The Dual-Glo luciferase assay system (#E2940; Promega) was used for odorant receptor ligand screening. More specifically, Hana3A cells were streaked and spread on a white polystyrene 96-well plate (#353296; BD Biosciences) one day before transfection. pCRELuc (1 μg; #219076; Agilent Technologies), pRL-SV40 (1 μg; #E2231; Promega), RTP1S (1 μg), and OR (6 μg; or Mock) vectors were transfected for 24 hours in each plate. Each plate was analyzed using Lipofectamine 2000 (#11668-019; Thermo Fisher Scientific) according to the manufacturer's protocol. Transfected cells were stimulated in CD293 medium (#11913-019; Thermo Fisher Scientific) at 37° C. for 4 hours using diluted odorants at various concentrations. The activity of luciferase was normalized by the activity of Renilla luciferase. The amount of light emitted was measured using a SpectraMax L microplate reader (Molecular Devices).

[2] = test system: Hana3A cells expressing Olfr111; test: Boyden chamber chemotaxis, Hana3A cells expressing Olfr111; assay type: cell-based; conditions: 2-PF 10, 100, 1000 uM
Description: Cell chemotaxis was measured using a multiwell Boyden chamber. More specifically, a polycarbonate filter (8 μm pore; #101-8; Neuroprobe) was coated with […] fibronectin in PBS (Sigma-Aldrich) for 2 hours, and the coated filter was placed in a Boyden chamber. In addition, the bottom side of the plate was filled with serum-free DMEM containing 2-pentylfuran or a culture supernatant. Next, microglia or Hana3A cells were transfected with an odorant receptor structure and then suspended in serum-free DMEM. Subsequently, microglia and Hana3A cells were allowed to stand at 37° C. for 4 hours and 8 hours, respectively. Cells sinking to the bottom were fixed with 4% PFA, and stained with hematoxylin for 10 minutes. Fixed cells were counted under an optical microscope in 5 randomly selected fixed […] fields (200×) using a scored eyepiece. The chemical chemotaxis index was defined as the number of migrating cells using an untreated group as a standard.

Olfr110 = test: Odorant receptor / Olfr110 expression in microglia (qRT-PCR, immunostaining); assay type: cell-based, mouse; conditions: vs control
Excerpt: as §1
Thereafter, the cells were washed with PBS and fixed in 4% paraformaldehyde (#6148; Sigma Aldrich) for 5 minutes. Subsequently, the cells were cultured in PBS containing 4% normal horse serum (#008-000-121; Jackson ImmunoResearch) and 0.1% TWEEN® 20 (#P9416; Sigma-Aldrich) at room temperature for 1 hour. Then, the cells were […] at 4° C. overnight with the primary antibodies listed below. The antibodies are as follows: Olfr110 (rabbit-anti-Olfr110; 1:10,000; #ab177327; Abcam), Iba-1 (goat-anti-Iba-1; 1:1,000; #ab5076; Abcam), and GFAP (mouse-anti-GFAP; 1:1,000; #556330; BD Biosciences). Samples were cultured with secondary antibodies in PBS including 0.1% TWEEN® 20 (#P9416; Sigma-Aldrich) at room temperature for 1 hour. […]

SMILES: CCCCCc1ccco1 [2-PF, 2-pentylfuran]
- mobility of the mouse (total movement distance) [1]: concentration-dependent decrease
- mRNA expression level of inflammatory cytokines in the cerebral cortex (cerebral cortex): significantly increased
- GFP intensity of microglia (morphological change, activation) (microglia): highly increased
- reactivity of Olfr111 (relative luciferase activity) (Olfr111): particularly strong reactivity; also recorded: highest reactivity
- mobility (chemotaxis) of Olfr111-expressing Hana3A cells [2]: increased in mobility in a concentration-dependent manner
- Olfr110 protein level (immunostaining) (Olfr110): significantly increases
